Data published in ChEMBL document CHEMBL6092167, “Phosphorylation as an Effective Tool to Improve Stability and Reduce Toxicity of Antimicrobial Peptides” (J Med Chem, 2024).
Values after ≈ are worked out from the molar mass of the structure shown. Non-standard residues stand in square brackets, D forms with d. Residues, ends and D or L forms follow the SMILES beside them. Bip = N[C@@H](Cc1ccc(-c2ccccc2)cc1)C(=O)O; pY = N[C@@H](Cc1ccc(OP(=O)(O)O)cc1)C(=O)O; pT = C[C@@H](OP(=O)(O)O)[C@H](N)C(=O)O; 2Nal = N[C@@H](Cc1ccc2ccccc2c1)C(=O)O

What was measured:
Acinetobacter baumannii = assay: Antibacterial activity against Acinetobacter baumannii ATCC 19606 incubated for 18 to 24 hrs by broth microdilution method; assay type: functional; details: time 18-24 hrs
[1] = Cytotoxicity against HEK293T cells incubated for 1 hr by fluorescence based microplate reader assay; assay type: toxicity, cell-based, HEK-293T; details: human
Staphylococcus aureus [2] = assay: Antibacterial activity against methicillin resistant Staphylococcus aureus 48 incubated for 18 to 24 hrs by broth microdilution method; assay type: functional; details: time 18-24 hrs
Escherichia coli [3] = assay: Antibacterial activity against Escherichia coli 780 incubated for 18 to 24 hrs by broth microdilution method; assay type: functional; details: time 18-24 hrs
Escherichia coli [4] = assay: Antibacterial activity against Escherichia coli 850 incubated for 18 to 24 hrs by broth microdilution method; assay type: functional; details: time 18-24 hrs
[5] = Hemolytic activity in mouse erythrocyte incubated for 1 hr by microplate reader assay; assay type: toxicity, cell-based
Staphylococcus aureus [6] = assay: Antibacterial activity against methicillin resistant Staphylococcus aureus ATCC 33591 incubated for 18 to 24 hrs by broth microdilution method; assay type: functional; details: time 18-24 hrs
Pseudomonas aeruginosa [7] = assay: Antibacterial activity against Pseudomonas aeruginosa ATCC 27853 incubated for 18 to 24 hrs by broth microdilution method; assay type: functional; details: time 18-24 hrs
Staphylococcus aureus [8] = assay: Antibacterial activity against Staphylococcus aureus ATCC 25923 incubated for 18 to 24 hrs by broth microdilution method; assay type: functional; details: time 18-24 hrs
Escherichia coli [9] = assay: Antibacterial activity against Escherichia coli ATCC 25922 incubated for 18 to 24 hrs by broth microdilution method; assay type: functional; details: time 18-24 hrs
Klebsiella pneumoniae [10] = assay: Antibacterial activity against Klebsiella pneumoniae ATCC 700603 incubated for 18 to 24 hrs by broth microdilution method; assay type: functional; details: time 18-24 hrs
Pseudomonas aeruginosa [11] = assay: Antibacterial activity against Pseudomonas aeruginosa 119 incubated for 18 to 24 hrs by broth microdilution method; assay type: functional; details: time 18-24 hrs
Bacillus subtilis = assay: Antibacterial activity against Bacillus subtilis ATCC 23857 incubated for 18 to 24 hrs by broth microdilution method; assay type: functional; details: time 18-24 hrs
Staphylococcus aureus [12] = assay: Antibacterial activity against Staphylococcus aureus 794 incubated for 18 to 24 hrs by broth microdilution method; assay type: functional; details: time 18-24 hrs
Klebsiella pneumoniae [13] = assay: Drug resistance development in Klebsiella pneumoniae ATCC 700603 assessed as fold increase in MIC measured after 7 passage; assay type: functional

Compound	MIC (Acinetobacter baumannii) [µM]	CC50 at 1 h [1] [µM]	MIC (Staphylococcus aureus [2]) [µM]	MIC (Escherichia coli [3]) [µM]	MIC (Escherichia coli [4]) [µM]	MHC [5] [µM]	MIC (Staphylococcus aureus [6]) [µM]	MIC (Pseudomonas aeruginosa [7]) [µM]	MIC (Staphylococcus aureus [8]) [µM]	MIC (Escherichia coli [9]) [µM]	MIC (Klebsiella pneumoniae [10]) [µM]	MIC (Pseudomonas aeruginosa [11]) [µM]	MIC (Bacillus subtilis) [µM]	MIC (Staphylococcus aureus [12]) [µM]	fold change (FC) (Klebsiella pneumoniae [13])
CC(C)C[C@H](NC(=O)[C@H](CC(C)C)NC(=O)[C@H](Cc1ccc(OP(=O)(O)O)cc1)NC(=O)[C@H](CCCCN)NC(=O)[C@H](CC(C)C)NC(=O)[C@H](CCCNC(=N)N)NC(=O)[C@H](CCCCN)NC(=O)[C@H](Cc1ccc2ccccc2c1)NC(=O)[C@H](CC(C)C)NC(=O)CN)C(N)=O (H-GL[2Nal]KRLK[pY]LL-NH2)	8 (≈ 11 µg/mL)	128	8 (≈ 11 µg/mL)	16 (≈ 22.1 µg/mL)	8 (≈ 11 µg/mL)	164.57	8 (≈ 11 µg/mL)	16 (≈ 22.1 µg/mL)	8 (≈ 11 µg/mL)	8 (≈ 11 µg/mL)	8 (≈ 11 µg/mL)	32 (≈ 44.1 µg/mL)	8 (≈ 11 µg/mL)	8 (≈ 11 µg/mL)	–
CC(C)C[C@H](NC(=O)[C@H](CC(C)C)NC(=O)[C@@H](NC(=O)[C@H](CCCCN)NC(=O)[C@H](CC(C)C)NC(=O)[C@H](CCCNC(=N)N)NC(=O)[C@H](CCCCN)NC(=O)[C@H](Cc1ccc(-c2ccccc2)cc1)NC(=O)[C@H](CC(C)C)NC(=O)CN)[C@@H](C)O)C(N)=O (H-GL[Bip]KRLKTLL-NH2)	8 (≈ 10.1 µg/mL)	76.4	8 (≈ 10.1 µg/mL)	8 (≈ 10.1 µg/mL)	8 (≈ 10.1 µg/mL)	47.48	8 (≈ 10.1 µg/mL)	8 (≈ 10.1 µg/mL)	8 (≈ 10.1 µg/mL)	8 (≈ 10.1 µg/mL)	8 (≈ 10.1 µg/mL)	8 (≈ 10.1 µg/mL)	8 (≈ 10.1 µg/mL)	8 (≈ 10.1 µg/mL)	–
CC(C)C[C@H](NC(=O)[C@H](CC(C)C)NC(=O)[C@@H](NC(=O)[C@H](CCCCN)NC(=O)[C@H](CC(C)C)NC(=O)[C@H](CCCNC(=N)N)NC(=O)[C@H](CCCCN)NC(=O)[C@H](Cc1ccc(-c2ccccc2)cc1)NC(=O)[C@H](CC(C)C)NC(=O)CN)[C@@H](C)OP(=O)(O)O)C(N)=O (H-GL[Bip]KRLK[pT]LL-NH2)	32 (≈ 43 µg/mL)	112	32 (≈ 43 µg/mL)	16 (≈ 21.5 µg/mL)	32 (≈ 43 µg/mL)	125.83	54 (≈ 72.6 µg/mL)	16 (≈ 21.5 µg/mL)	64 (≈ 86 µg/mL)	32 (≈ 43 µg/mL)	64 (≈ 86 µg/mL)	32 (≈ 43 µg/mL)	16 (≈ 21.5 µg/mL)	16 (≈ 21.5 µg/mL)	–
CO[C@H]1/C=C/O[C@@]2(C)Oc3c(C)c(O)c4c(O)c(c(/C=N/N5CCN(C)CC5)c(O)c4c3C2=O)NC(=O)/C(C)=C\C=C\[C@H](C)[C@H](O)[C@@H](C)[C@@H](O)[C@@H](C)[C@H](OC(C)=O)[C@@H]1C [RIFAMPIN]	1 (≈ 0.823 µg/mL)	–	–	–	–	–	–	32 (≈ 26.3 µg/mL)	< 1	8 (≈ 6.58 µg/mL)	32 (≈ 26.3 µg/mL)	–	< 1	–	128
H-GLLKRWKTLL-NH2	> 128	> 128	128	32	32	> 256	128	8	> 128	64	64	32	8	32	–
H-GLLKRWKYLL-NH2	64	> 128	32	8	16	> 256	32	8	64	16	64	16	4	16	–
H-GLWKRLKTLL-NH2	32	> 128	8	8	8	> 256	8	4	16	8	8	16	4	8	–
H-GLWKRLKYLL-NH2	8	115	8	8	8	182.72	8	8	8	8	8	16	4	8	–
